# Results reported in the supplement of paper PMC11003180.
# What was measured:
# Experiment in all cases: drug sensitivity score (DSS) from 5-dose viability curve (DSS (area-based score, 0 = no response)); higher = more sensitive (stronger viability inhibition); extreme values may be limits of the assay
# [1] = test system: MDCK p60AmotL2-inducible + doxycycline (p60AmotL2 expressing); settings: doxycycline: 10 ng/mL; 72 h
# Outline: (§1)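 Two MDCK lines, parental and doxycycline-inducible, received doxycycline at 10 ng/mL in the medium before being plated at 2000 cells/well onto a pre-spotted 384-well oncology library of 528 drugs at five doses (1-10,000 nM). Incubation lasted 72 h at 37 °C. Viability was read by CellTiter-Glo luminescence, scaled per plate between vehicle and positive controls, and converted to drug sensitivity scores through Breeze curve fitting.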
# [2] = test system: MDCK wild-type + doxycycline; settings: doxycycline: 10 ng/mL; 72 h
# Outline: as §1
# [3] = test system: MDCK wild-type - doxycycline; settings: doxycycline: none; 72 h
# Outline: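 Drug sensitivity scores came from Breeze pipeline dose-response fits of CellTiter-Glo luminescence, scaled per plate between vehicle and positive controls. The assay used parental MDCK cells without doxycycline at 2000 cells/well, exposed for 72 h to 528 oncology drugs at five doses (1-10,000 nM).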
Compound,drug sensitivity score [1],drug sensitivity score [2],drug sensitivity score [3]
CO[C@H]1C[C@@H]2CC[C@@H](C)[C@@](O)(O2)C(=O)C(=O)N2CCCC[C@H]2C(=O)O[C@H]([C@H](C)C[C@@H]2CC[C@@H](OCCO)[C@H](OC)C2)CC(=O)[C@H](C)/C=C(\C)[C@@H](O)[C@@H](OC)C(=O)[C@H](C)C[C@H](C)/C=C/C=C/C=C/1C [Everolimus],8,2.1,2.1
CC(C)(C)NC(=O)[C@H]1CC[C@H]2[C@@H]3CC[C@H]4NC(=O)C=C[C@]4(C)[C@H]3CC[C@]12C [Finasteride],0,0,0
O=C(c1ccc(F)c(F)c1Nc1ccc(I)cc1F)N1CC(O)([C@@H]2CCCCN2)C1 [Cobimetinib],9.8,3.4,3.9
COc1cc2c(Oc3ccc(NC(=O)C4(C(=O)Nc5ccc(F)cc5)CC4)cc3F)ccnc2cc1OCCCN1CCOCC1 [Foretinib],2.8,1.2,0
Cn1cncc1[C@@](N)(c1ccc(Cl)cc1)c1ccc2c(c1)c(-c1cccc(Cl)c1)cc(=O)n2C [Tipifarnib],9.6,4.4,2.5
C[C@H](Nc1ncnc2[nH]cnc12)c1cc2ccc(F)cc2nc1-c1ccccn1 [AMG319],0,0,0
O=C(O)C1(C(=O)O)CCC1.[NH2-].[NH2-].[Pt+2] [Carboplatin],5,4.4,3.6
CC(=O)O[C@@]12CO[C@@H]1C[C@H](O)[C@@]1(C)C(=O)[C@H](O)C3=C(C)[C@@H](OC(=O)[C@H](O)[C@@H](NC(=O)OC(C)(C)C)c4ccccc4)C[C@@](O)([C@@H](OC(=O)c4ccccc4)[C@H]21)C3(C)C [Docetaxel],27,23.2,19.3
CNC(=O)c1ccc2cc([C@@]3(O)CCn4cncc43)ccc2c1 [Orteronel],0,0,0
Cc1ccc(C(=O)N(CCCN)[C@@H](c2oc3cc(Cl)ccc3c(=O)c2Cc2ccccc2)C(C)C)cc1,8.8,5.8,15.3
CN(Cc1cnc2nc(N)nc(N)c2n1)c1ccc(C(=O)N[C@@H](CCC(=O)O)C(=O)O)cc1 [Methotrexate],22.5,25.8,27
O=C(Nc1ccc2[nH]nc(-c3ccncc3)c2c1)[C@@H]1CCN(CC(=O)N2CCN(c3ccc(-c4ncccn4)cc3)CC2)C1,10.7,6.7,3.5
COc1cc(NS(C)(=O)=O)ccc1Nc1c2ccccc2nc2ccccc12 [Amsacrine],15.3,8.8,7.6
CN1CCC(CNc2ccc3ncc(-c4cccc(OC(F)(F)F)c4)n3n2)CC1 [SGI-1776],7.5,6.3,6.6
Cn1cc(C[C@@H](N)C(=O)O)c2ccccc21 [1-methyl-D-tryptophan],0,0,0
Cc1cnc(Nc2ccc(OCCN3CCCC3)cc2)nc1Nc1cccc(S(=O)(=O)NC(C)(C)C)c1 [Fedratinib],6.9,5.7,6
CC(C)(C)c1cc(NC(=O)Nc2ccc(Oc3ccnc4[nH]c(=O)cnc34)cc2F)n(-c2ccccc2)n1,7,5.1,4.9
COc1ccc(Cn2ccc3ccc(C(=O)NO)cc32)cc1,2.1,3.1,0
COc1cc2c(Oc3ccc4[nH]c(C)cc4c3F)ncnc2cc1OCCCN1CCCC1 [Cediranib],0.3,0,0
